Assay in all cases: NCI anticancer screen, dose series, 48 h
Test [1] concerns EKVX NSCLC.
Test [2] relates to HOP-62 NSCLC.
Test [3] concerns HT29 colon.
Test [4] relates to MOLT-4 leukemia.
Test [5] has as its system NCI-H522 lung.
For test [6], the system named is OVCAR-3 ovarian.
The test system of test [7] is OVCAR-8 ovarian.
For test [8], the system named is SK-OV-3 ovarian.
The subject of test [9] is SW-620 colon.
Test [10] deals with UACC-257 melanoma.

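Following 48 hours of exposure in 96-well plates, responses at five concentrations were used to interpolate endpoints linearly. At the GI50, growth is halved. At the TGI there is no net growth.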

On to `C/C=C/[P+](c1ccccc1)(c1ccccc1)c1ccccc1`, for which the TGI was 13.5 µM in test [1]; 27.4 µM in [2]; 12.9 µM in [3]; 19.6 µM in [4]; 10.2 µM in [5]; 7.94 µM in test [6]. Besides, the TGI stood at 17.3 µM in [7], 10.5 µM in test [8], 24.3 µM in test [9] and 11.2 µM in test [10].
As for `Cc1sc(Cc2ccccc2)nc1-c1ccc(N)cc1`, the TGI in test [1] is above 100 µM; in test [3], 54.8 µM; in test [4] it was 51.1 µM; in test [5], 38.7 µM; in test [6], 68.8 µM; in test [7], above 100 µM. The values for the TGI in [9] and in [10] were above 100 µM and 84.5 µM, respectively.
In the case of `CCOC(=O)/C(Cl)=C(\C)Nc1nc2c(ccc3ccccc32)s1`, the TGI in test [1] was above 100 µM; in test [2] it was above 100 µM; in test [3], above 100 µM; in test [4] it was above 100 µM; in test [5] it was 70.9 µM; in test [6], above 100 µM. In addition, the TGI in test [7], in [8], in test [9] and in [10] was above 100 µM throughout.
`O=c1oc2ccccc2c(Nc2ccc3c(c2)S(=O)(=O)c2ccccc2O3)c1[N+](=O)[O-]`: the TGI in [1] is above 100 µM; in test [2], above 100 µM; in test [3] it was above 100 µM; in test [5] it was 42.9 µM; in test [6], 79 µM; in test [7], 78.4 µM. The TGI was 68 µM in [8], above 100 µM in test [9] and 58.8 µM in test [10].
On to `Cc1cc(NCc2cc(Nc3ccnc4cc(Cl)ccc34)ccc2F)nc(N2CCCC2)n1`, for which the GI50 in test [1] was 2.43 µM; in [2], 1.42 µM; in test [3], 0.877 µM; in test [4] it was 1.95 µM; in test [6], 1.63 µM; in [8] it was 2.04 µM. Further, the GI50 was 1.23 µM in [9] and 1.87 µM in test [10]. Besides, the TGI in test [1] is 11.1 µM; in test [2], 3.14 µM; in [3] it was 2.27 µM; in test [4], 14.3 µM; in test [6], 3.22 µM; in [8] it was 5.09 µM. Also, the TGI in test [9] amounted to 2.95 µM; in [10] it was 3.53 µM.
As to `NC(N)=N/N=C/c1c(-c2ccccc2)nc2n1ccc1nc(-c3ccccc3)c(/C=N/N=C(N)N)n12`, the TGI in test [1] was 65.7 µM; in test [2], above 100 µM; in test [3] it was above 100 µM; in [4], above 100 µM; in test [5], above 100 µM; in [6], above 100 µM. The TGI in test [7] was above 100 µM; in test [8], above 100 µM; in [9] it was above 100 µM; in test [10], 81.8 µM.
In the case of `C[C@@H]1CC[C@H]2C(COCCOCC3=C(C(F)(F)F)O[C@@H]4O[C@@]5(C)CC[C@H]6[C@H](C)CC[C@@H]3[C@@]46OO5)=C(C(F)(F)F)O[C@@H]3O[C@@]4(C)CC[C@@H]1[C@]32OO4`, the GI50 in test [1] is 0.795 µM; in test [2] it was above 24 µM; in test [3] it was below 0.0138 µM; in test [4], below 0.0349 µM; in test [5] it was 2.9 µM; in test [6], 0.134 µM. Besides, the GI50 in test [7] was below 0.0261 µM; in [8], above 31.5 µM; in test [9] it was 0.0293 µM; in test [10], 0.407 µM. For the same compound, the TGI in test [1] is above 100 µM; in [2] it was above 100 µM; in test [3] it was above 100 µM; in [4], above 100 µM; in test [5], above 100 µM; in test [6], above 8.24 µM. The TGI in test [7], in [8], in [9] and in test [10] was above 100 µM throughout.
Turning to `CC1=NN(c2ccccc2)C(=O)/C1=C/c1ccc(O)cc1`, the TGI in [1], in [3], in test [4], in test [6], in [7] and in [8] was above 100 µM in each case. The TGI in test [9] and in test [10] was above 100 µM each time.
In the case of `CC1=C2C(=O)c3ccccc3C(=O)[C@H]2[C@H]2CCO[C@H]2O1`, the TGI in test [1] is 91.6 µM; in [2], 40 µM; in test [3] it was 95.2 µM; in [4], above 100 µM; in [5] it was 32 µM; in test [6], 36.5 µM. The TGI was 45.2 µM in test [7], above 100 µM in [8], 53.1 µM in [9] and 36.5 µM in [10].
For `COc1ccc(-c2c3c(nc4nc(SCCc5ccccc5)nc(N)c24)CCCC3)cc1OC`, the TGI in test [1], in test [2], in test [3], in test [4], in test [6] and in test [7] was above 100 µM in each case. Moreover, the TGI in test [8], in [9] and in [10] was above 100 µM each time.
Take `CCCCCCNC(=O)c1cnc(Cl)cn1`: the TGI in test [1] was 20.7 µM; in test [2], 34.3 µM; in test [3] it was above 100 µM; in test [4] it was 23.2 µM; in test [5] it was 0.552 µM; in [7] it was 34.5 µM. Also, the TGI in test [8] turned out to be 66 µM; in test [9], 28.4 µM; in test [10], 37.4 µM.
On to `CN(C)CCCNc1ccc2ncn3c4ccccc4c(=O)c1c23`, for which the TGI was above 100 µM in [2]; 19.6 µM in test [3]; 13 µM in test [4]; above 100 µM in test [5]; 56.2 µM in test [6]; 20 µM in test [7]. The TGI is above 100 µM in test [8], 26.5 µM in [9] and 61.3 µM in test [10].

Source of the values: PubChem BioAssay (NCI).
